Measured values taken from article PMC4773758, “Small Molecule Inhibited Parathyroid Hormone Mediated cAMP Response by N–Terminal Peptide Binding” (Scientific Reports, 2016).

Tests used:
Water solubility = format: physicochemical; conditions: in the absence of the metal
From the text: As GPCRs are involved in many diseases, they are targets for approximately 40% of all human modern medicinal drugs. However, these drugs target only a small fraction (about 10%) of known GPCRs[37]. Within the context of receptors including GPCRs, typically available drug molecules for pharmacological applications directly target the receptors. However, literature is limited with regards to molecules which bind to the agonist to modify its receptor activating function. A potential class of molecules for this purpose could be organic/coordination/mixed–ligand complexes. In mixed–ligand complexes one metal ion can replace another metal ion bearing the original skeletal system. A metal replacement can lead to suppressed or negligible biological responses. […] In principle, Zn(II) is less toxic than Cu(II) and it is redox silent therefore, this metal was chosen in exchange of Cu(II).

PTH1R in HEK 293 cells = test: cAMP assay, compound pre-incubated with cells followed by PTH(1–84); format: cell-based, Human; conditions: compound pre-incubated with the cells, then PTH(1–84)
Experimental: The cAMP generation was also analyzed to see the effect of the Zn complex on the receptor itself. Here, the Zn complex was pre-incubated with the cells followed by addition of PTH(1–84). […] In another control experiment cAMP generation was also studied by incubating the 9-anthracenemethanol with the peptide (Figure S9) or directly with the cells (grey bars in Figure S7). […] Additionally, inhibition of cAMP response or cell toxicity was also not observed up to 100 μM of Zn–perchlorate (Figure S10).
(§1) HEK 293 cells stably expressing hPTH1R were used for the cAMP accumulation assay following the previously reported procedure. The reaction was carried out at 37 °C and fluorescence measurements were taken using a VICTOR X4 2030 plate reader (PerkinElmer Life and Analytical Sciences). A fixed amount of 0.01 μM peptide hormones and 4 × 10^3 cells per well were used to monitor the cAMP response. The Zn complex or 9-anthracenemethanol was diluted form 0.1 μM to 100 μM and incubated for 15 minutes with the peptide hormone before addition of HEK 293 cells. […] The maximum cAMP response were calculated as a percentage of the maximal response of PTH(1–34) or PTH(1–84). The effect of Zn complex or 9-anthracenemethanol on receptor was evaluated by incubating these with the cells for 15 minutes followed by washing with buffer. […]

[1] = set-up: method as in PMID 21709916; conditions: cited from earlier work
cancer cells = test system: cancer cells; set-up: method as in PMID 21709916; conditions: broad range of cancer cells; cited from earlier work
PTH(1–34) [2] = target: T1, PTH(1–34) (Homo sapiens, UniProt P01270); test: Fluorescence quenching titration with PTH(1–34); format: binding
T1 construct: Human PTH(1–34) and PTH(1–84) were purified as previously reported; SUMO (N, cleaved yes); His-tag (C); made in house; host or cells: E. coli BL21 codon+
T1 sequence (P01270 32-65 limits assumed): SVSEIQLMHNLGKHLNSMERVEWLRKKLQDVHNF
Experimental: (§2) The natural form of parathyroid hormone comprises 84 residues, however, PTH(1–34) is sufficient for receptor activation. PTH contains one tryptophan residue at position 23. Thus it can be used as a highly sensitive fluorescent probe for the analysis of ligand binding by fluorescence spectroscopy. PTH is composed of structured sections mainly from positions 1–37, whereas the C–terminal part is largely unstructured. […] In order to establish the binding a titration experiment was carried out where the PTH(1–34) concentration was kept constant and the concentration of the Zn complex was varied.
(§3) The fluorescence quenching behavior was analyzed according to the equation given in the experimental section. […] In order to evaluate the interaction at the C–terminal part of the PTH and its role in binding, full length PTH(1–84) was taken and its binding was established.
(§4) Fluorescence titrations were carried out on a JASCO FP6500. The samples were excited at 280 nm wavelength and the emission spectra were recorded in the range between 290 nm to 450 nm. Experiments were carried out in 10 mM BisTris, 300 mM Na2SO4, 0.02% NaN3, pH 7.2 using a 1 cm path length quartz cell. The concentration of PTH(1–34), PTH(1–84) and nECD-PTH1R used in the titration experiments were 7.4 μM, 8.1 μM and 5 μM, respectively. In a typical titration experiment, 4 μM of Zn complex or 9-anthracenemethanol was added and spectra were recorded after each addition. Zn complex or 9-anthracenemethanol in buffer was used as blank titration and these spectral traces were subtracted from the main titration. The Zn complex or 9-anthracenemethanol was dissolved in dimethyl sulfoxide and further diluted for experiments. The final concentration of DMSO was <1% in any experiment.
(§5) Fluorescence data were analyzed according to the following equation:
(§6) with P = (P0 / (V0 + L))V0 and L1 = (L0 / (V0 + L))L and Q – fluorescence intensity, P – protein concentration, L – ligand concentration, V – volume, n – binding sites and 0 – indicates start point.

PTH(1–34) [3] = target: T1, PTH(1–34); test: ITC with PTH(1–34); format: binding; conditions: 25 °C
Experimental: (§7) ITC is a well suited method to evaluate protein-ligand interaction. The interaction of the Zn complex with PTH(1–34) and PTH(1–84) was evaluated by ITC at 25 °C. Zn complex binding was exothermic in nature for both the peptides (Fig. 3b and Figure S4). Data fitting gave n values of 2.28 ± 0.13 and 1.93 ± 0.04 for PTH(1–34) and PTH(1–84), respectively. […] The enthalpic gain counterbalances the unfavorable loss in entropy of the system upon complex binding.
(§8) The calorimetric titrations were performed at 25 °C with a MicroCal VPITC isothermal titration calorimeter. Small aliquots (7 μl) of the Zn complex were added to a solution of the respective peptide in the calorimeter cell. Successive additions were separated by a 300 second interval to allow the resulting peak from peptide Zn complex interaction to return to the baseline. All of the studies were carried out in 10 mM BisTris, 300 mM Na2SO4, pH 7.2.

PTH(1–84) [4] = target: T2, PTH(1–84) (Homo sapiens, UniProt P01270); test: Fluorescence quenching titration with PTH(1–84); format: binding
T2 construct: SUMO (N, cleaved yes); His-tag (C); made in house; host or cells: E. coli BL21 codon+
T2 sequence (P01270 32-115): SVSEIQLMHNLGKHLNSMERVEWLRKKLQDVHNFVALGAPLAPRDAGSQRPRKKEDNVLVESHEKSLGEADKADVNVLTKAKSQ
Experimental: as §2, §3, §4, §5, §6

PTH(1–84) [5] = target: T2, PTH(1–84); test: ITC with PTH(1–84); format: binding; conditions: 25 °C
Experimental: as §7, §8

PTH(1–84) [6] = target: T2, PTH(1–84); test: NMR 1H–15N HSQC titration with 15N–PTH(1–84); format: binding; conditions: pH 5.3, 25 °C
From the text: Preferential binding at residue-level resolution was further investigated by choosing full length ^15N PTH(1–84) to see whether or not the C–terminal region is involved in the Zn complex interaction. […] These NMR spectra indicate that the N–terminal domain of PTH (1–84) binds to the Zn complex whereas the C–terminus part remains solvent exposed and flexible enough to result in observable resonances. […] Histidine 63 is the only exception in the C–terminal part of PTH(1–84) sensing complex formation.
The spectra were recorded at the concentration of 50 μM of peptide hormones. Subsequently, titration was carried out with the addition of 0.5 μl of 10 mM Zn complex until there was no further change in NMR intensity observed. The spectrum corresponding to the 1:4 complex formations was used for the analysis. For the 9-anthracenemethanol titration experiment 20 μM of PTH was used. A titration was carried out and the 1:4 complex of PTH:9-anthracenemethanol was analyzed in detail. The spectra were corrected for the dilution factor. The previously determined NMR assignments of PTH resonances were used[24][63][64]. The spectra were recorded in the 10 mM BisTris, 300 mM Na2SO4, 0.02% NaN3, pH 5.3, with a Bruker 800 MHz Avance III spectrometer equipped with a CP–TCI cryoprobe at 25 °C. Spectra were processed using the programs NMRPipe and NMR Draw.

[7] = test system: PTH(1–84) induced cAMP in HEK 293 cells expressing hPTH1R; test: cAMP accumulation assay, compound pre-incubated with PTH(1–84); format: cell-based, Human; conditions: PTH(1–84) 0.01 μM, 15 min pre-incubation with peptide
From the text: NMR spectroscopy identified that the Zn complex interacts with the N–terminal part of the peptide hormone. The binding region from residues 1–37 of PTH(84) is important for recognition, interaction with the extracellular loops and trans–membrane helices of the receptor and bringing about activation of the later. There are two principal signal transduction pathways involving the G protein–coupled receptors: the cAMP signal pathway and the phosphatidylinositol signal pathway. Parathyroid hormone is involved in the cAMP pathway for its biological regulation. Because binding of the Zn complex was at the N–terminal part of PTH, it is interesting to investigate the cAMP response towards its receptor in the presence of the Zn complex. Therefore PTH(1–34) and PTH(1–84) induced cAMP accumulation was measured in stable HEK 293 cell lines expressing recombinant PTH1R[33]. A cAMP generation assay was carried out in a Zn complex concentration dependent manner, keeping the cells and peptide hormone concentrations constant. PTH response without Zn complex was considered as 100% cAMP response. The peptide hormones were exposed to Zn complex for 15 minutes to allow for complex formation and subsequently cAMP generation was studied.
HEK 293 cells stably expressing hPTH1R were used for the cAMP accumulation assay following the previously reported procedure. The reaction was carried out at 37 °C and fluorescence measurements were taken using a VICTOR X4 2030 plate reader (PerkinElmer Life and Analytical Sciences). A fixed amount of 0.01 μM peptide hormones and 4 × 10^3 cells per well were used to monitor the cAMP response. The Zn complex or 9-anthracenemethanol was diluted form 0.1 μM to 100 μM and incubated for 15 minutes with the peptide hormone before addition of HEK 293 cells. All experiments were performed in triplicate and repeated independently three times. The maximum cAMP response were calculated as a percentage of the maximal response of PTH(1–34) or PTH(1–84). The effect of Zn complex or 9-anthracenemethanol on receptor was evaluated by incubating these with the cells for 15 minutes followed by washing with buffer. These treated cells were added to the reaction mixture containing untreated PTH(1–84) as described above.

[8] = test system: PTH(1–34) induced cAMP in HEK 293 cells expressing hPTH1R; test: cAMP accumulation assay, compound pre-incubated with PTH(1–34); format: cell-based, Human; conditions: PTH(1–34) 0.01 μM, 15 min pre-incubation with peptide
From the text: NMR spectroscopy identified that the Zn complex interacts with the N–terminal part of the peptide hormone. The binding region from residues 1–37 of PTH(84) is important for recognition, interaction with the extracellular loops and trans–membrane helices of the receptor and bringing about activation of the later. There are two principal signal transduction pathways involving the G protein–coupled receptors: the cAMP signal pathway and the phosphatidylinositol signal pathway. Parathyroid hormone is involved in the cAMP pathway for its biological regulation. […] Therefore PTH(1–34) and PTH(1–84) induced cAMP accumulation was measured in stable HEK 293 cell lines expressing recombinant PTH1R[33]. […]
as §1, with “Sciences).” for “Sciences). A fixed amount of 0.01 μM peptide hormones and 4 × 10^3 cells per well were used to monitor the cAMP response. The Zn complex or 9-anthracenemethanol was diluted form 0.1 μM to 100 μM and incubated for 15 minutes with the peptide hormone before addition of HEK 293 cells.”

[9] = read-out: concentration at which 50% reduced activity (cAMP response) was observed

c1ccc(-c2cc(-c3c4ccccc4cc4ccccc34)cc(-c3ccccn3)n2)nc1 [anthracenyl terpyridine]
water solubility (Water solubility): water insoluble

Zn(II) complex of anthracenyl terpyridine [Zn complex]
suppression of cAMP generation (PTH1R in HEK 293 cells): did not show a significant suppression
nuclease activity [1]: did not show nuclease or antiprolifirative activities
antiproliferative activity (cancer cells): did not show nuclease or antiprolifirative activities
reduced fluorescence intensity at the end of the titration (PTH(1–34) [2]; 76 μM of Zn complex, PTH(1–34)): ~ 86%
CF50 (concentration required for 50% quenching of fluorescence intensity) (PTH(1–34) [2]; PTH(1–34)): 21.46 ± 0.5 µM
stoichiometry (numbers of binding sites with equal affinities) (PTH(1–34) [2]; fluorescence quenching, PTH(1–34)): 1.9
Kd (PTH(1–34) [2]; fluorescence quenching, PTH(1–34) 7.4 μM, pH 7.2): 27 ± 1.8 µM
Kd (PTH(1–34) [3]): 55.06 ± 0.06 µM
n (ITC) (PTH(1–34) [3]): 2.28 ± 0.13
∆H (ITC) (PTH(1–34) [3]): -5.9 ± 0.1 kcal/mol
∆S (ITC) (PTH(1–34) [3]): −5.37 cal mol^−1K^−1
reduced fluorescence intensity at the end of the titration (PTH(1–84) [4]; 76 μM of Zn complex, PTH(1–84)): ~ 75%
CF50 (concentration required for 50% quenching of fluorescence intensity) (PTH(1–84) [4]; PTH(1–84)): 31.8 ± 0.8 µM
stoichiometry (PTH(1–84) [4]; fluorescence quenching, PTH(1–84)): 2.0
Kd (PTH(1–84) [4]; fluorescence quenching, PTH(1–84) 8.1 μM, pH 7.2): 34 ± 1.7 µM
Kd (PTH(1–84) [5]): 54.1 ± 0.08 µM
n (ITC) (PTH(1–84) [5]): 1.93 ± 0.04
∆H (ITC) (PTH(1–84) [5]): -11.25 ± 0.3 kcal/mol
∆S (ITC) (PTH(1–84) [5]): −7.15 cal mol^−1K^−1
change in NMR cross peaks / intensity of PTH(1–84) (PTH(1–84) [6]): binds to N–terminal residues
concentration for complete suppression of the cAMP response [7]: ~ 20 μM
IC50 [7, 9]: 2 µM
concentration for complete suppression of the cAMP response [8]: ~ 20 μM
IC50 [8, 9]: 2 µM
